We go through 3 compounds from US20030004201A1, “Medicament” (SmithKline Beecham p.l.c., priority 1990, published 2003).

Where a name gives a salt, the structure may show the parent alone.

Turning to `CCCCc1nc2cc(Br)cc(C(=O)O)c2n1Cc1ccccc1Cl` [Example 4, 5-Bromo-2-n-butyl-1-(2-chlorophenyl)methyl-1H-benzimidazole-7-carboxylic Acid], the melting point is 254 to 255 °C.

In the case of `CCCSc1ncc(C[C@H](NC(=O)CCC)C(=O)O)n1Cc1ccccc1Cl` [Example 1, 3-[(2-Chlorophenyl)methyl]-2-propylthio-N-butyrylhistidine], the melting point is 178 to 181 °C. The value for `CCCCc1ncc(CC(Cc2ccccc2)C(=O)O)n1Cc1ccccc1Cl` (stereo not drawn) (as salt: hydrochloride) [Example 2, 3-[2-n-Butyl-1-{(2-chlorophenyl)methyl}-1H-imidazol-5-yl]-2-benzylpropanoic Acid] was 118 to 120 °C.

The term melting point denotes the temperature of the solid-liquid transition.
